# How the values were obtained:
# [1] = tested on: L-type Ca channel; assay: Fluorometric Ca flux in INDO1-loaded GH3 cells; format: cell-based; conditions: concentrations exceeding 300 AM (highest concentration tested)
# Protocol: (§1) In parallel experiments, SNX-483 was tested for its ability to block voltage-dependent calcium (Ca) and voltage-dependent potassium (K) channels. N- and L-type Ca channel-mediated Ca fluxes were measured fluorometrically using INDO1—loaded IMR32 and GH3 cells, respectively. At concentrations exceeding […] (the highest concentration tested), SNX-483 had no effect on either type of Ca flux.
# [2] = target: T1, Kv1.2 K channel (Homo sapiens, UniProt P16389); assay: K currents of Shaker subfamily channels expressed in xenopus oocytes; format: cell-based; conditions: concentrations up to 1 μM
# T1 construct: expressed in transfected cells; host or cells: Xenopus oocytes
# Protocol: (§2) In addition, SNX-483 was evaluated for the ability to inhibit members of the Shaker subfamily of voltage-dependent K channels expressed in xenopus oocytes. At concentrations up to 1 μM, SNX-483 had no effect on K currents mediated by Kv1.1, Kv1.2, Kv1.3 or Kv1.4 K channels.
# [3] = target: T2, Kv1.3 K channel (Homo sapiens, UniProt P22001); assay: as above; format: cell-based; conditions: concentrations up to 1 μM
# T2 construct: expressed in transfected cells; host or cells: Xenopus oocytes
# Protocol: as §2
# [4] = target: T3, Kv1.4 K channel (Homo sapiens, UniProt P22459); assay: as above; format: cell-based; conditions: concentrations up to 1 μM
# T3 construct: expressed in transfected cells; host or cells: Xenopus oocytes
# Protocol: as §2
# [5] = target: T4, Kv1.1 K channel (Homo sapiens, UniProt Q09470); assay: as above; format: cell-based; conditions: concentrations up to 1 μM
# T4 construct: expressed in transfected cells; host or cells: Xenopus oocytes
# Protocol: as §2
# [6] = tested on: TTXs Na channels; assay: Whole-cell electrophysiological assay of TTXs Na currents in DRG neurons; format: cell-based, Sprague-Dawley rat
# Excerpt: FIG. 7 illustrates that at a membrane potential of −55 mV, SNX-483 more potently blocks TTXi Na currents than TTXs Na currents. In experiments carried out in support of the present invention, DRGs containing predominantly TTXi Na currents and TTXs currents were superfused sequentially with increasing concentrations of SNX-483. […]
# 10-20 day old Sprague-Dawley rat pups were euthanized using CO2 or decapitation. Dorsal root ganglia were removed and placed in Dulbecco s Minimum Essential Medium supplemented with 10% (v/v) fetal bovine serum (DMEM). Ganglia were then cut into small pieces and transferred to DMEM containing 2 mg/ml collagenase and incubated for 30 minutes in a 37° C. incubator with 5% CO2 atmosphere. After 15 minutes incubation, the pieces were gently triturated by three passages through a glass capillary pulled to 0.2 mm i.d. The collagenase was then removed by three washes in 10 ml of DMEM. The final resuspension was into DMEM supplemented with 50 ng/ml NGF, 50 I.U./ml penicillin and […] streptomycin. Cells were then transferred onto glass coverslips coated with collagen and placed in a 37° C. incubator as above. […]
# TTXs sodium currents can be measured in large DRG neurons or in other cells or cell lines lacking TTXi Na channels. […]
# [7] = tested on: TTXi Na channels; assay: Whole-cell electrophysiological assay of TTXi Na currents in capsaicin-sensitive DRG neurons; format: cell-based, Sprague-Dawley rat; conditions: membrane potential −55 mV
# Excerpt: (§3) . Using a voltage paradigm during which a pair of depolarizing steps to −10 mV are separated by a 4 ms repolarizing step, greater than 90% of TTXs Na currents remain inactivated (FIG. 2B, see below). FIGS. 2C and 2D present voltage families of the TTXi (rapidly recovering Na current) and TTXs (slowly recovering Na current), respectively, generated using this paired-pulse paradigm. TTXs currents (FIG. 2D) were generated by subtracting Na currents obtained following a prepulse to −10 mV from those obtained without a prepulse. The fraction of the total Na current carried by the fast-recovering, TTXi, Na channel varied from cell to cell (generally from 70-90% of Na current is carried by a TTXi conductance in capsaicin-sensitive DRGs). […].
# (§4) FIG. 4 presents Na currents obtained before and after exposure of cells to solutions containing 50, 100, 200, 500 and 1000 μM SNX-483 in a capsaicin-sensitive DRG neuron (PAN). […] In the experiments presented in FIG. 4, the capsaicin-sensitive neuron was held at −55 mV and stepped twice to −10 mV at 10 second intervals. Similar results have been obtained in every capsaicin-sensitive PAN tested (n=7). Only about 7% of the TTXi Na current that was blocked by 400 μM SNX-483 recovered within 15 minutes of continuously exchanging the recording chamber with fresh extracellular solution. […]
# [8] = target: TTXi Na channels (Rattus norvegicus, UniProt Q62968); assay: as above; format: cell-based, Sprague-Dawley rat; conditions: DRG neuron; 400 μM, depolarizing steps from holding potential −80 mV; read-out: block of TTXi Na current
# Excerpt: as §3, §4
# [9] = target: T5, N-type Ca channel (Homo sapiens, UniProt Q00975); assay: Fluorometric Ca flux in INDO1-loaded IMR32 cells; format: cell-based; conditions: concentrations exceeding 300 AM (highest concentration tested)
# T5 construct: endogenous in cells; host or cells: IMR32 cells
# Protocol: as §1
# T1 sequence (P16389 whole entry): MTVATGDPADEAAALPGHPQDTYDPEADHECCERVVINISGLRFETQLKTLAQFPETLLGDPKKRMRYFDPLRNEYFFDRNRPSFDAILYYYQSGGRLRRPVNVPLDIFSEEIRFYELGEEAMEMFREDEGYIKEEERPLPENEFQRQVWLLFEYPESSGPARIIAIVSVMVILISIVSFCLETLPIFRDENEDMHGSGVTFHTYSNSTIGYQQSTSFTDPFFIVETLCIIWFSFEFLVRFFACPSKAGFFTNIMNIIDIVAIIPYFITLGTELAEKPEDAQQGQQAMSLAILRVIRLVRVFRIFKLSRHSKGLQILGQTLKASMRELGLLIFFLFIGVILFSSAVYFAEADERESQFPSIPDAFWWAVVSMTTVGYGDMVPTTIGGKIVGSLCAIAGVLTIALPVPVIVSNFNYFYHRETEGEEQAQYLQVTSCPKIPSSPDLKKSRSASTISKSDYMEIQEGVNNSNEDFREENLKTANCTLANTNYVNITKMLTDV
# T2 sequence (P22001 whole entry): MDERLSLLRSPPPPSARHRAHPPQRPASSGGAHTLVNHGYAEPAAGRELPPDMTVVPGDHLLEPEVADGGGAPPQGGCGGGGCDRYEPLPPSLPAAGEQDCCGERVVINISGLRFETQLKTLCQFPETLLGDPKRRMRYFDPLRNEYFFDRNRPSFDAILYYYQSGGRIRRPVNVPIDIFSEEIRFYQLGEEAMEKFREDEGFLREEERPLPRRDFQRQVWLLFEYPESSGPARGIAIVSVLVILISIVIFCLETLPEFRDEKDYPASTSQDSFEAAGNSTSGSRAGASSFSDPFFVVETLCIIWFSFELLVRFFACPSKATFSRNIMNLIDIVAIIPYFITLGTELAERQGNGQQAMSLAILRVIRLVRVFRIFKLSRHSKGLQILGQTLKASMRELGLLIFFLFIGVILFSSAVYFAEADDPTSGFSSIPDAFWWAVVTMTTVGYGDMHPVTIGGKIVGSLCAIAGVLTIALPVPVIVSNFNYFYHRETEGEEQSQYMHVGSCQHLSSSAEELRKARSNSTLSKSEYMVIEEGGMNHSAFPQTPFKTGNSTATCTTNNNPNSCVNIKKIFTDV
# T5 sequence (Q00975 whole entry): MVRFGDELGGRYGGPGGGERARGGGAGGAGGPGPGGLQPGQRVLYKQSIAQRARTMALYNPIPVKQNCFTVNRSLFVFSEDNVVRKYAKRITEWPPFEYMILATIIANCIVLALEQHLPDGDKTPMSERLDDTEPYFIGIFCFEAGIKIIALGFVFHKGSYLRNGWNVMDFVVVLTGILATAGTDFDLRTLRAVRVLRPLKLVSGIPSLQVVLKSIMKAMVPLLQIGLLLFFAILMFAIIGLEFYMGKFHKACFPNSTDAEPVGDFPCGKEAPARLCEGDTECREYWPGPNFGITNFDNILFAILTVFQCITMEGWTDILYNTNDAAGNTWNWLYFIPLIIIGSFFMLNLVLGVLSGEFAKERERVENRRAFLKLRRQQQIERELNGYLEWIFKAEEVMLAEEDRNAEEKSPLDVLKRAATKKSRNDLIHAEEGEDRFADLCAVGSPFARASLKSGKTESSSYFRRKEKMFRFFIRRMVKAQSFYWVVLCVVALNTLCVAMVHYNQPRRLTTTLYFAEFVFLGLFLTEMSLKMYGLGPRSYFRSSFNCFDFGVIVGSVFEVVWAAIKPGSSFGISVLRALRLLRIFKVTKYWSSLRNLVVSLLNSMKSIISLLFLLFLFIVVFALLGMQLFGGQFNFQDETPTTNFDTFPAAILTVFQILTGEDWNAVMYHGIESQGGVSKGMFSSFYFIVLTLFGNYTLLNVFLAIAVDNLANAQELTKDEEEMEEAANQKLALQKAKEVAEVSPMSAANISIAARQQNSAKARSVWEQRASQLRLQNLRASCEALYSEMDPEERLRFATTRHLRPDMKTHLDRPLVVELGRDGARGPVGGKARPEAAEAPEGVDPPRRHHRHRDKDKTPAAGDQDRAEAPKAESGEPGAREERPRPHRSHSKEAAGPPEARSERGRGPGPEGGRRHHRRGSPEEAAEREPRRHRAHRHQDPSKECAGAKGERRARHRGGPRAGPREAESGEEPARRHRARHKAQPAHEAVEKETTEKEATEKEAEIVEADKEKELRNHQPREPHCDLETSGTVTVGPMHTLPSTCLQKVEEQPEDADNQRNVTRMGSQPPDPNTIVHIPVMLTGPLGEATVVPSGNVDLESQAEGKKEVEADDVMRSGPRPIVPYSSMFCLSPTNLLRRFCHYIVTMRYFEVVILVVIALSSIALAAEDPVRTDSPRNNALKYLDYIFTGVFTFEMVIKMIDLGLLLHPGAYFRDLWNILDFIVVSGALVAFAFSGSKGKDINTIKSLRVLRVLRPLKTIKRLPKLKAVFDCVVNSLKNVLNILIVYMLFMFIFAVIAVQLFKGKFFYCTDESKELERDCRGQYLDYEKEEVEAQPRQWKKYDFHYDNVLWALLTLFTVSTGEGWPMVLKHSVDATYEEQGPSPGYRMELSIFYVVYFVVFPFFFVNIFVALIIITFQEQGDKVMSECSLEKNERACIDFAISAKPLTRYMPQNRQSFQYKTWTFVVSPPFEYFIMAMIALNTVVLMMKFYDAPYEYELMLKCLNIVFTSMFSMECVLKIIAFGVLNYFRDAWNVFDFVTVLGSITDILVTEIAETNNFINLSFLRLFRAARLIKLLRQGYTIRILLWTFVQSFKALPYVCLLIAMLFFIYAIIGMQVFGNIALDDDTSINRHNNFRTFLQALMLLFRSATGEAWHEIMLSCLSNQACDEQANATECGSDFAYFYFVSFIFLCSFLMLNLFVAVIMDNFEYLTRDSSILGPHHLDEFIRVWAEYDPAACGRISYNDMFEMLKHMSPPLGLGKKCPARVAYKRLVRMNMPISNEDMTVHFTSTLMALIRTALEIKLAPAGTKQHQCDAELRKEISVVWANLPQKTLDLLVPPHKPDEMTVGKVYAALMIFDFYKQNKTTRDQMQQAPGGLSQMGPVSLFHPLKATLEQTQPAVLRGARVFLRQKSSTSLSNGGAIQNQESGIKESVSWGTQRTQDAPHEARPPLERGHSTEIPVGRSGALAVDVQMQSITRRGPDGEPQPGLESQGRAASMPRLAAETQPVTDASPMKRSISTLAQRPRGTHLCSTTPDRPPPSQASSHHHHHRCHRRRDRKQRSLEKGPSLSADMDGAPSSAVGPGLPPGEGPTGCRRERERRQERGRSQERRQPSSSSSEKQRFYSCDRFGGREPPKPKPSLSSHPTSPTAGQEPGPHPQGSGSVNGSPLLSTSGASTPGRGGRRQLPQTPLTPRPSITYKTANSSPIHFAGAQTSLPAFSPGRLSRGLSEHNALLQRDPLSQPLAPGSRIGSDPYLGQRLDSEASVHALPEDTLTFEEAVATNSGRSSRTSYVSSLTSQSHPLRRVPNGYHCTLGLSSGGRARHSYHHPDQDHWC
# T5 sequence (P54289 957-1103, further chain): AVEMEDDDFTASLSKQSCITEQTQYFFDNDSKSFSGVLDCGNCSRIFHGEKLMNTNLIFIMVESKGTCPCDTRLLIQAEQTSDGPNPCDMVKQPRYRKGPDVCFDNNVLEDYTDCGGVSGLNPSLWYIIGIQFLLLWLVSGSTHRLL
# T5 sequence (P54284 whole entry, further chain): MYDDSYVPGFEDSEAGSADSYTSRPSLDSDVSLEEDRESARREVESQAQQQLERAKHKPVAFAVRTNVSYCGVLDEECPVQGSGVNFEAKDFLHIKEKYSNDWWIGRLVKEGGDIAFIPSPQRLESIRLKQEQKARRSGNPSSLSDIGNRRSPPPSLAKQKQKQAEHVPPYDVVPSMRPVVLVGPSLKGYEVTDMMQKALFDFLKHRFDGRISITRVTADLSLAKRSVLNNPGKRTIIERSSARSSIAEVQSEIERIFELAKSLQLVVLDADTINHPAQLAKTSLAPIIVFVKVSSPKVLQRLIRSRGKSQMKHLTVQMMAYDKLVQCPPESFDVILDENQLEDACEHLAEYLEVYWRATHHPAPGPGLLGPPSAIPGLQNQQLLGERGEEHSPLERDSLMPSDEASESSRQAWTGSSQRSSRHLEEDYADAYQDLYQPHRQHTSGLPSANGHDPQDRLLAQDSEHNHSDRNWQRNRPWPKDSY
# T5 sequence (P54289 25-956, further chain): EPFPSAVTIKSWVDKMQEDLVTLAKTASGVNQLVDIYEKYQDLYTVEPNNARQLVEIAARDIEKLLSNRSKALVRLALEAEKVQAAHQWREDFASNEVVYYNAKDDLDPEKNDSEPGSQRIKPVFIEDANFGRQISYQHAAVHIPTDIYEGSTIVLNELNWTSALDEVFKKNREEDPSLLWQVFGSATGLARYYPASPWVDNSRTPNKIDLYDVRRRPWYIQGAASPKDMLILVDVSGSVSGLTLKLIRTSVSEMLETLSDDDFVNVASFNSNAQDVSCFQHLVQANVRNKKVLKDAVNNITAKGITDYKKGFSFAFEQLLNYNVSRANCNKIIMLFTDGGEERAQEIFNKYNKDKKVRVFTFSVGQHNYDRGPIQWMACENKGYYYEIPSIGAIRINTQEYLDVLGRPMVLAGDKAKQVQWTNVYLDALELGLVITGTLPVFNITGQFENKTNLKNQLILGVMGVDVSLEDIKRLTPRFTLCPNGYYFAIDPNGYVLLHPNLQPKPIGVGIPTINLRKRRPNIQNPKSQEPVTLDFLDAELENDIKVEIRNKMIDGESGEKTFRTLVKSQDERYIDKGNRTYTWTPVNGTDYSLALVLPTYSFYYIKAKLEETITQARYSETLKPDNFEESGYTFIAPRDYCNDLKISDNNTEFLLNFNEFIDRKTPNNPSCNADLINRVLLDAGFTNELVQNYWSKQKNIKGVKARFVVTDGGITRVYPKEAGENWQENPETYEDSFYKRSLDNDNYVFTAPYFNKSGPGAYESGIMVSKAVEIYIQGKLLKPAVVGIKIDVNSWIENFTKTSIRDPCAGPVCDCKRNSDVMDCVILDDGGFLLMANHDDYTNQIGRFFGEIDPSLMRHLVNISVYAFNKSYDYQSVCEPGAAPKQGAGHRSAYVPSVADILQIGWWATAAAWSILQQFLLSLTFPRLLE
structure (smiles),measurement,setting,value
"CCNCC(=O)Nc1c(C)ccc(O)c1C [SNX-483, 2-(ethylamino)-N-(3-hydroxy-2,6-dimethylphenyl) acetamide]",effect on L-type Ca channel-mediated Ca flux,[1],no effect
same,effect on K currents mediated by Kv1.2,[2],no effect
same,effect on K currents mediated by Kv1.3,[3],no effect
same,effect on K currents mediated by Kv1.4,[4],no effect
same,effect on K currents mediated by Kv1.1,[5],no effect
same,block of TTXs Na currents,"[6]; 400 μM, large capsaicin-insensitive DRG clamped at −55 mV, 16 ms repolarizing step",does not block
same,IC50,[6]; membrane potential −55 mV,222 ± 12 µM
same,"Potency ratio 1/(IC50, TTXi/IC50, TTXs)",[7],3.1
same,inhibition at 400 µM,[8],20%
same,effect on N-type Ca channel-mediated Ca flux,[9],no effect

# Reference: patent US6489119B1, “Analgesic screening method and composition” (priority 1996, dated 2002)
